In paper PMC11243320, “Tailoring Fibroblast-Activation Protein Targeting for Theranostics: A Comparative Preclinical Evaluation of the ^68Ga- and ^177Lu-Labeled Monomeric and Dimeric Fibroblast-Activation Protein Inhibitors DOTA.SA.FAPi and DOTAGA.(SA.FAPi)2” (Molecules, 2024):

Tested on: PC3 tumor-bearing mice
Experiment: Ex vivo biodistribution of 68Ga-labeled radiotracers in PC3 xenografts
Protocol: U87MG and PC3 tumor-bearing mice: Female athymic BALB/c (6 weeks/16–20 g) and male athymic BALB/c nude mice (6 weeks/20–25 g) were implanted with U87MG or PC3 cells (5 × 10^6/100 µL PBS) into their right shoulder, respectively. The animals were used for biodistribution and PET/SPECT/CT imaging studies (Animal License No: BE98/2021).
Ten pmol (0.08–0.1 MBq) of the radiotracers in 100 µL of NaCl 0.9% were injected intravenously into the tail vein of U87MG and PC3 tumor-bearing mice and biodistribution studies were conducted at 1, 2, and 3 h after injection.
Saturation Binding Studies […]
The radioactivity of the culture medium, the receptor bound , the internalized and the externalized fractions were measured in a γ -counter. The externalized fraction of radioactivity was ex-pressed as the percentage of the total internalized amount.
[68Ga]Ga -DOTA.SA.FAPi and [ 68Ga]Ga -DOTAGA.(SA.FAPi) 2
Ten pmol ( 0.08 –0.1 MBq) of [68Ga]Ga -monomer and [ 68Ga]Ga -dimer in 100 µ L of NaCl 0.9% were injected intravenously into the tail vein of U87MG or PC3 tumor bearing mice . The PC3 tumor-bearing mice were used between the 15th and 17th day after the xenograft implantation and the size was 281 ± 75 mm3. The U87MG tumor-bearing mice were used between the 7th and 9th day after the implantation and the size was 210 ± 34 mm3. Animals were terminally anesthetized by intraperitoneal injection of an overdose of pento-barbital natrium (150 mg/kg; Streuli Pharma SA, Uznach, Switzerland) at 1, 2 and 3 h after injection of the radiotracers. The organs of interest were dissected and weighed, and the radioactivity in the tissue samples […]
was counted in a γ-counter. Biodistribution data are given as the percent of injected activity per gram of tissue (% IA/g) and as means ± SD (n = 4). […]
each radiotracer along with 20 nmol of UAMC1110 (total injected volume: 100 µL) and biodistribution stud-ies were performed 2 h after injection.
[177Lu]Lu-DOTA.SA.FAPi and [177Lu]Lu-DOTAGA.(SA.FAPi)2
Ten pmol (0.06-0.08 MBq) of [177Lu]Lu-monomer and [177Lu]Lu-dimer in 100 µL of NaCl 0.9% were injected intravenously into the tail vein of PC3 tumor-bearing mice. The PC3 tumor-bearing mice were used between the 15th and 17th day after the xenograft implantation and its size was 281 ± 75 mm3. Animals were terminally anesthetized by intraperitoneal injection of an overdose of pentobarbital natrium (150 mg/kg; Streuli Pharma SA, Uznach, Switzerland) 1, 4, 24 and 48 h after the injection of [177Lu]Lu-DOTA.SA.FAPi and at 4, 24, 48, 72 and 96 h after the injection of [177Lu]Lu-DOTAGA.(SA.FAPi)2. The organs of interest were dissected and weighed, and the radioactivity in the tissue samples was counted in a γ-counter. The biodistribution data are given as the percent of injected activity per gram of tissue (% IA/g) and as means ± SD (n = 4). […]
blood pools or if they were necrotic. Both tumor types were “clean” without extended vascularization; there […]
Small Animal Imaging Studies
PET images were obtained after injection of 200 pmol of [68Ga]Ga-DOTA.SA.FAPi and [68Ga]Ga-DOT-AGA.(SA.FAPi)2 (1.0–1.6 MBq/100 μL) into U87MG or PC3 xenografts at 1, 2 and 3 h after injection. Static imaging was acquired for a time period between 10 and 45 min at 1, 2 and 3 h post injection, respectively.
To visualize the extent of FAP-specific tumor uptake, PET/CT blocking studies were performed as described above, and static scans were obtained for 30 min 2 h after the injection of the radiotracer along with the blocking agent (20 nmol).
PET images were corrected for gallium-68 decay and reconstructed with 12 iterations of the maximum a posteriori (MAP) algorithm using a voxel size of 0.25 mm. No correction was applied for attenuation. In addition, a point spread function iterative deconvolution was applied. The images were normalized, filtered using a Gaussian 3D algorithm with a 1.3 mm isotropic kernel and generated using PMOD software. The CT was carried out using step and shoot mode and employed 45 kVp and 400 uA as settings. The images […]

[1] = 2 h blocking (20 nmol UAMC1110)

Biodistribution Blood (1 h): 8.5± 0.6 % IA/g | Biodistribution Bone (1 h): 3.4±0.4 % IA/g | Biodistribution Heart (1 h): 4.6±1.6 % IA/g | Biodistribution Intestine (1 h): 2.7±0.2 % IA/g | Biodistribution Kidney (1 h): 3.6±0.3 % IA/g | Biodistribution Liver (1 h): 2.4±0.1 % IA/g | Biodistribution Lung (1 h): 3.4±0.6 % IA/g | Biodistribution Muscle (1 h): 2.5±0.2 % IA/g | Biodistribution PC3-Tumor (1 h): 6.1±0.7 % IA/g | Biodistribution Pancreas (1 h): 8.9±1.0 % IA/g | Biodistribution Spleen (1 h): 2.5±0.1 % IA/g | Biodistribution Stomach (1 h): 2.0±0.4 % IA/g | Tumor/Blood ratio (1 h): 0.7±0.03 | Tumor/Liver ratio (1 h): 1.8±0.1 | Tumor/Muscle ratio (1 h): 2.4±0.4 | Tumor/Pancreas ratio (1 h): 0.7±0.1 | Biodistribution Blood (2 h): 4.8±0.3 % IA/g | Biodistribution Bone (2 h): 2.0±0.2 % IA/g | Biodistribution Heart (2 h): 1.9±0.1 % IA/g | Biodistribution Intestine (2 h): 2.6±0.2 % IA/g | Biodistribution Kidney (2 h): 2.7±0.2 % IA/g | Biodistribution Liver (2 h): 2.7±0.2 % IA/g | Biodistribution Lung (2 h): 2.2±0.1 % IA/g | Biodistribution Muscle (2 h): 2.6±0.3 % IA/g | Biodistribution PC3-Tumor (2 h): 5.4±2.4 % IA/g | Biodistribution Pancreas (2 h): 6.4±0.5 % IA/g | Biodistribution Spleen (2 h): 1.7±0.1 % IA/g | Biodistribution Stomach (2 h): 1.4±0.1 % IA/g | Tumor/Blood ratio (2 h): 1.2±0.6 | Tumor/Liver ratio (2 h): 2.1±0.1 | Tumor/Muscle ratio (2 h): 2.1±1.2 | Tumor/Pancreas ratio (2 h): 0.9±0.4 | Biodistribution Blood [1]: 0.3±0.1 % IA/g | Biodistribution Bone [1]: 0.2±0.1 % IA/g | Biodistribution Heart [1]: 0.1±0.05 % IA/g | Biodistribution Intestine [1]: 0.4± 0.1 % IA/g | Biodistribution Kidney [1]: 1.2±0.2 % IA/g | Biodistribution Liver [1]: 0.2±0.04 % IA/g | Biodistribution Lung [1]: 0.3±0.1 % IA/g | Biodistribution Muscle [1]: 0.1±0.06 % IA/g | Biodistribution PC3-Tumor [1]: 0.5±0.1 % IA/g | Biodistribution Pancreas [1]: 0.1±0.06 % IA/g | Biodistribution Spleen [1]: 0.1± 0.04 % IA/g | Biodistribution Stomach [1]: 0.1±0.07 % IA/g | Biodistribution Blood (3 h): 4.7±0.4 % IA/g | Biodistribution Bone (3 h): 3.4±2.4 % IA/g | Biodistribution Heart (3 h): 2.0±0.1 % IA/g | Biodistribution Intestine (3 h): 2.4±0.4 % IA/g | Biodistribution Kidney (3 h): 2.4±0.4 % IA/g | Biodistribution Liver (3 h): 2.6±0.4 % IA/g | Biodistribution Lung (3 h): 2.1±0.3 % IA/g | Biodistribution Muscle (3 h): 2.3±0.2 % IA/g | Biodistribution PC3-Tumor (3 h): 5.0±0.2 % IA/g | Biodistribution Pancreas (3 h): 5.1±1.1 % IA/g | Biodistribution Spleen (3 h): 1.8±0.5 % IA/g | Biodistribution Stomach (3 h): 1.6±0.1 % IA/g | Tumor/Blood ratio (3 h): 1.8±0.2 | Tumor/Liver ratio (3 h): 3.3±0.5 | Tumor/Muscle ratio (3 h): 3.8±0.4 | Tumor/Pancreas ratio (3 h): 1.7±0.4
Structure (SMILES): N#C[C@@H]1CC(F)(F)CN1C(=O)CNC(=O)c1ccnc2ccc(OCCCCNc3c(NCCNC(=O)CN4CCN(CC(=O)[O-])CCN(CC(=O)[O-])CCN(CC(=O)[O-])CC4)c(=O)c3=O)cc12.[68Ga+3] [[^68Ga]Ga-DOTA.SA.FAPi]
